The subject of assay [1] is RAW 264.7 macrophages. Description: IL-6 production by PAM3CSK4-stimulated RAW 264.7 macrophages. Type of assay: cell-based, mouse. As to the method: The ability of free MyD88 inhibitor T6167923 (Br) or T6167923 (SH) in solution to attenuate pro-inflammatory cytokine production by macrophages treated with PAM3CSK4 was assessed (FIG. 12A). When macrophages were treated with PAM3CSK4, IL-6 production increased (p<0.01) by 3-fold. […] Comparing the two inhibitors at 100 μM, T6167923 (Br) had attenuated IL-6 production by 89%, while T6167923 (SH) had attenuated IL-6 product by 58%.
Inhibitor Preparation and Synthesis: 200 μM stock solutions of T6167923 (Br) and T6167923 (SH) were prepared by first dissolving the inhibitors in 100 μL anhydrous DMSO, then adding dropwise to 9.9 mL culture medium and sterile filtering. The stock solution was then serially diluted in additional cell culture medium to make treatment concentrations. The inhibitor-PEG-peptide molecule was synthesized as follows. Bromoacetamido-dPEG12-TFP ester (36 mg) was added to 400 μL anhydrous DMSO and stirred in an amber vial to dissolve. T6167923 (SH) (17.65 mg) was dissolved in 100 μL anhydrous DMSO before being added dropwise to the amber vial. After 20 minutes of stirring, 1.5 mL of 50 mM sodium bicarbonate buffer, pH 8.4 was slowly added to the vial and the reaction was continued for an additional 20 minutes. Triglycine (8.6 mg) was combined with 2 mL of 50 mM sodium bicarbonate buffer, pH 8.4, then added dropwise to the reaction mixture in the amber vial with stirring. The reaction progressed overnight, then the product was purified by dialysis with 100-500 MWCO tubing against DI water. The reaction was monitored by consumption of sulfhydryls and primary amines. The product was sterile filtered and then lyophilized.
Cell Culture: RAW 264.7 cells were cultured in DMEM with 10% FBS and 1% penicillin/streptomycin at 37° C. and 5% CO2. Depending on the experiment, cells were seeded in tissue culture polystyrene (TCPS) well plates ([…]) or on hydrogels at 625,000 cells/cm^2 and allowed to adhere overnight. For transwell experiments, a transwell with a hydrogel was inserted into the well after the cells were allowed to adhere. For the (T6167923 (Br), T6167923 (SH)), and inhibitor-PEG-peptide studies, cells were treated with inhibitor for a specified period of time. To do this, medium was aspirated from the well and replaced with inhibitor-containing DMEM. Control conditions included cells only and cells plus 1% anhydrous DMSO by volume. After a specified period of culture time, PAM3CSK4 was added at 50 ng/ml and the cells were cultured for a prescribed period of time. Medium was collected and flash frozen for ELISA. […]
(§1) Protein Assays: Cell culture medium was thawed on ice. IL-6 in the culture media was quantified using an ELISA. MMP-12 production in culture media was measured per kit instructions. […]

Another assay deals with T1, human MMP-12 (Homo sapiens, UniProt P39900).
T1 construct: purchased R&D Systems
Description: Cleavage of hydrogel-tethered tryptophan peptides by MMP-12. The format is biochemical. The settings on record: role: substrate; 5 nM activated MMP-12, 285 nm; p<0.001. The method, then:
To test the cleavability of the chosen peptides by MMP-12, the sequences were modified with tryptophan residues, tethered to PEG hydrogels at 5 μM concentration, and exposed to 5 nM MMP-12 in buffer. First, the maleimide of acrylate-PEG-maleimide (MW 3,400 g/mol) was reacted with the cysteine residue contained in the peptide sequence to create a PEG-conjugated peptide with tryptophan at one end and an acrylate group at the other. This product was then combined with PEGDA monomer and photoinitiator in PBS and photopolymerized, yielding a gel (FIG. 14C). The release of the tryptophan-containing cleaved portion of the sequence was monitored by measuring buffer absorbance at 285 nm over time (FIG. 14D).
For the release studies, acrylate-PEG-maleimide (6.8 mg) was reacted with peptide (GWGPLGLEEACG [SEQ ID NO. 2] or GWGPLGLARCG [SEQ ID NO. 1], 5 mM) in 500 μL dry DMF for 30 minutes with stirring. PEGDA (100 mg) was then added to the reaction mixture and vortexed to combine. Irgacure 2959 was added as photoinitiator in dry DMF (6 mg/mL). This precursor solution was gelled between glass slides with a 1 mm spacer under UV light for 45 minutes. The resulting 20 wt % hydrogel was soaked in ultrapure water to rinse away DMF followed by additional rinses in TCNB assay buffer (50 mM Tris, 10 mM CaCl2, 150 mM NaCl, 0.05% (w/v) Brij-35, pH 7.5).
Tryptophan Release: Peptide-conjugated hydrogels swollen in TCNB assay buffer were punched to 5 mm diameter and placed in wells of a 96-well clear, flat bottom well plate (n=4 gels for each peptide). Human MMP-12 was reconstituted in 10 mM MES, 0.1 M NaCl, 100 μM CaCl2, 0.1% (w/v) CHAPS, 1 μM ZnSO4, 0.1% (w/v) PEG, pH 6.0 buffer to 0.25 mg/mL. It was then diluted to 50 μg/mL with TCNB assay buffer and activated by adding 100 mM APMA in DMSO to 1 mM final concentration and incubating at 37° C. for 24 hours. […] At each time point, 2 μL supernatant was removed from each well and spectrophotometrically measured on the Nanodrop at 285 nm. […]

In assay [2] the test system is RAW 264.7 macrophages. Description: MMP-12 secretion by RAW 264.7 macrophages (ELISA). The format is cell-based, mouse. As to conditions: PAM3CSK4 50 ng/ml, 8 h. The method, then:
RAW 264.7 macrophages were cultured in serum-free (1% ITS) media (FIG. 14A) or serum-containing medium (10% FBS) (FIG. 14(B)) and treated or not with PAM3CSK4 (50 ng/ml), then their secretion of MMP-12 over the 8-hour period was evaluated by ELISA. Macrophages with (p<0.01) and without (p<0.001) PAM3CSK4 stimulation secreted MMP-12 when cultured in the serum-free media, with average levels of 245 and 556 μg/mL, respectively. In serum-containing media, the production of MMP-12 was on average 178 μg MMP-12/mL (p<0.01 relative to blank) in unstimulated cells. […] Unstimulated cells in the same media secreted MMP-12. MMP-12 production by the cells was higher in ITS media than in FBS media.
Cell Culture: RAW 264.7 cells were cultured in DMEM with 10% FBS and 1% penicillin/streptomycin at 37° C. and 5% CO2. Depending on the experiment, cells were seeded in tissue culture polystyrene (TCPS) well plates ([…]) or on hydrogels at 625,000 cells/cm^2 and allowed to adhere overnight. For transwell experiments, a transwell with a hydrogel was inserted into the well after the cells were allowed to adhere. […]
as §1
In general terms: ELISA stands for enzyme-linked immunosorbent assay.

No end group written: not given here.

T1 sequence (P39900 106-470): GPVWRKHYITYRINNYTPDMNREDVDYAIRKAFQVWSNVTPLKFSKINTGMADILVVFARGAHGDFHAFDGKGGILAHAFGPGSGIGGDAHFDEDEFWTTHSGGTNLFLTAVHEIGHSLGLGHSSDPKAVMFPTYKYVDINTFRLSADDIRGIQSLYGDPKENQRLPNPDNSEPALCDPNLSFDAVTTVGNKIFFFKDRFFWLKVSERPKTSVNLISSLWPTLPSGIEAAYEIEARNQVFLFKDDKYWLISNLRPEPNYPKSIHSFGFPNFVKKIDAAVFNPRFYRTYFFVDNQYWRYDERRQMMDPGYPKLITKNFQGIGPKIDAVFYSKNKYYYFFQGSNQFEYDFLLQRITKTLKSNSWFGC

`C[C@H](NC(=O)N1CCN(S(=O)(=O)c2cccc(Br)c2)CC1)c1cccs1` [T6167923 (Br)]: the “attenuation of IL-6 production” value with RAW 264.7 macrophages [1] (100 μM inhibitor, PAM3CSK4 50 ng/ml) was 89%. In the assay on RAW 264.7 macrophages [1] (PAM3CSK4 50 ng/ml), the “dose dependence of IL-6 attenuation” value is reported as “a dose-dependent response was observed” and the “inhibitor concentrations at which IL-6 was significantly lower than untreated PAM3CSK4-stimulated cells” value was 50 to 200 µM.

In the case of “GWGPLGLARCG [SEQ ID NO. 1]: MMP-12 cleavable peptide, tryptophan modified, tethered to PEG hydrogel (also: tethered to PEG hydrogel)”, in the assay with human MMP-12, the “cleavage by MMP-12 (tryptophan cumulative release)” value was “cleaved by the MMP-12” and the “rate of cleavage by MMP-12 relative to the longer peptide (SEQ ID NO. 2)” value is given as “slightly faster rate”.

Turning to “GWGPLGLEEACG [SEQ ID NO. 2]: MMP-12 cleavable peptide, tryptophan modified, tethered to PEG hydrogel (also: tethered to PEG hydrogel)”, in the assay with human MMP-12, the “cleavage by MMP-12 (tryptophan cumulative release)” value is “cleaved by the MMP-12”.

In the case of PAM3CSK4, in the assay with RAW 264.7 macrophages [1] (PAM3CSK4 treatment vs unstimulated, no inhibitor, p<0.01), the “increase in IL-6 production” value is recorded as 3 -fold. The “MMP-12 levels compared to blank (no cells)” value in the assay with RAW 264.7 macrophages [2] (serum-containing medium (10% FBS)) is “not statistically different to the blank”. The same molecule had an MMP-12 secretion in the assay on RAW 264.7 macrophages [2] (serum-free (1% ITS) media, p<0.01 vs blank) of 245 µg/mL.

These data come from patent publication US20260295119A1, “TARGET FOR COMBATTING THE FOREIGN BODY RESPONSE TO IMPLANTABLE BIOMATERIALS” (The Regents of the University of Colorado, a body corporate, priority 2023, published 2026).
